# Values quoted from earlier work in patent US6756056B2, “Treatment of Parkinson's disease and related disorders by novel formulations of the combination carbidopa-levodopa” (priority 1997, dated 2004).
# Conditions: doses of 400 mg per day
structure (smiles),measurement,value
C[C@@](Cc1ccc(O)c(O)c1)(NN)C(=O)O [carbidopa],Adverse effects,apparently devoid of adverse effects
